Reference: patent publication US9512107B2, “Therapeutically active compositions and their methods of use” (Agios Pharmaceuticals, Inc., priority 2012, dated 2016)
Positions count from the first letter of the chain named.

Legend:
[1] = target: T1, IDH2 R172K (Homo sapiens, UniProt P48735, R172K); test: IDH2 R172K enzymatic assay (NADPH cofactor depletion, diaphorase/resazurin readout); assay type: biochemical; settings: read-out: Enz R172K
T1 sequence (P48735 40-452 R172K): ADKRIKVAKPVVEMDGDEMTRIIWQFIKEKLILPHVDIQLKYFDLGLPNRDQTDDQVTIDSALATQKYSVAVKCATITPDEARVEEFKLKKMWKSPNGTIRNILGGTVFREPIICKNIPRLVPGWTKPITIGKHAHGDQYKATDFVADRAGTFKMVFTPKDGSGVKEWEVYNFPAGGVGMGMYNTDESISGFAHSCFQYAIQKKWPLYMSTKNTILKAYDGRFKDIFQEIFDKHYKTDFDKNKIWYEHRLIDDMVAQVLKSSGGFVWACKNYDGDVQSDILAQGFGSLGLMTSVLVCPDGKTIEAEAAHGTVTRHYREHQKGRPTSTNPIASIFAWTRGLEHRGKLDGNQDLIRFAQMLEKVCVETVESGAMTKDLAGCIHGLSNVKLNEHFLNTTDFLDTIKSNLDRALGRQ
Summary of the method: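 Cofactor depletion format: enzyme + compound 1 h RT; add substrate mix (50 μM NADPH, 6.3 mM α-KG); react 1 h RT; quench with stop mix (36 μg/ml diaphorase, 60 μM resazurin); read resorufin fluorescence as residual NADPH.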

[2] = target: T2, IDH2 R140Q (Homo sapiens, UniProt P48735, R140Q); test: IDH2 R140Q enzymatic assay (cofactor depletion, similar format); assay type: biochemical; settings: read-out: Enz R140Q
T2 sequence (P48735 40-452 R140Q): T1 sequence (P48735 40-452 R172K) with R101Q, K133R

[3] = test system: U87MG pLVX-IDH2 R140Q-neo cells; test: U87MG pLVX-IDH2 R140Q-neo cell based assay, 2-HG in media by LC-MS at 48 hours; settings: Homo sapiens, U-87 MG
Summary of the method: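 2-HG secreted into the medium was measured by LC-MS after 48 h of compound treatment (0.2% DMSO final) of U87MG pLVX-IDH2 R140Q-neo cells in DMEM/10% FBS. The same wells were assayed at 72 h by CellTiter-Glo luminescence for effects on growth.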

| IC50 [1] | IC50 [2] | IC50 [3] | Structure (SMILES) |
| --- | --- | --- | --- |
| 100 to 1000 nM | < 100 nM | 100 to 1000 nM | CC(Nc1nc(Nc2ccncc2)nc(-c2ccccc2)n1)C1CC1 (stereo not drawn) [Compound 257, N^2-(1-cyclopropylethyl)-6-phenyl-N^4-(pyridin-4-yl)-1,3,5-triazine-2,4-diamine] |
| < 100 nM | 100 to 1000 nM | < 100 nM | CC(C)Nc1nc(Nc2ccc(F)nc2)nc(-c2cccc(Cl)n2)n1 [Compound 344, 6-(6-chloropyridin-2-yl)-N^2-(6-fluoropyridin-3-yl)-N^4-isopropyl-1,3,5-triazine-2,4-diamine] |
| 1000 to 10000 nM | < 100 nM | 100 to 1000 nM | CC(C)Nc1nc(Nc2ccncc2)nc(-c2cccc(F)c2)n1 [Compound 184, 6-(3-fluorophenyl)-N^2-isopropyl-N^4-(pyridin-4-yl)-1,3,5-triazine-2,4-diamine] |
| 100 to 1000 nM | 100 to 1000 nM | < 100 nM | FC(F)(F)c1cc(Nc2nc(Nc3cncs3)nc(-c3cccc(C(F)(F)F)n3)n2)ccn1 [Compound 546, N2-(thiazol-5-yl)-6-(6-(trifluoromethyl)pyridin-2-yl)-N4-(2-(trifluoromethyl)pyridin-4-yl)-1,3,5-triazine-2,4-diamine] |
| 1000 to 10000 nM | 100 to 1000 nM | 100 to 1000 nM | CC(=O)Nc1cccc(-c2nc(Nc3ccnc(C(F)(F)F)c3)nc(NC(C)C)n2)n1 [Compound 697, N-(6-(4-(isopropylamino)-6-(2-(trifluoromethyl)pyridin-4-ylamino)-1,3,5-triazin-2-yl)pyridin-2-yl)acetamide] |
| < 100 nM | 100 to 1000 nM | < 100 nM | CC(C)Nc1nc(Nc2ccnc(C(C)(C)C#N)c2)nc(-c2cccc(C(F)(F)F)n2)n1 [Compound 671, 2-{4-[4-Isopropylamino-6-(6-trifluoromethyl-pyridin-2-yl)-[1,3,5]triazin-2-ylamino]-pyridin-2-yl}-2-methyl-propionitrile] |
| < 100 nM | 100 to 1000 nM | < 100 nM | CC1(Nc2nc(Nc3ccnc(C(F)(F)F)c3)nc(-c3cccc(C(F)(F)F)n3)n2)COC1 [Compound 549, N-(3-Methyl-oxetan-3-yl)-6-(6-trifluoromethyl-pyridin-2-yl)-N′-(2-trifluoromethyl-pyridin-4-yl)-[1,3,5]triazine-2,4-diamine] |
| < 100 nM | 100 to 1000 nM | < 100 nM | CC(C)Nc1nc(Nc2ccnc(C(F)(F)F)c2)nc(-c2cccc(N)n2)n1 [Compound 687, 6-(6-aminopyridin-2-yl)-N2-isopropyl-N4-(2-(trifluoromethyl)pyridin-4-yl)-1,3,5-triazine-2,4-diamine] |
| 1000 to 10000 nM | 100 to 1000 nM | 100 to 1000 nM | COc1ccc(Nc2nc(NC(C)C)nc(-c3ccccc3)n2)cc1 [Compound 159] |
| < 100 nM | 100 to 1000 nM | < 100 nM | CC(C)Nc1nc(Nc2cncc(F)c2)nc(-c2c(F)cccc2F)n1 [Compound 474, 6-(2,6-Difluoro-phenyl)-N-(5-fluoro-pyridin-3-yl)-N′-isopropyl-[1,3,5]triazine-2,4-diamine] |
| < 100 nM | 100 to 1000 nM | < 100 nM | CC(C)(C)CNc1nc(Nc2ccnc(C(F)(F)F)c2)nc(-c2cccc(N)n2)n1 [Compound 689, 6-(6-aminopyridin-2-yl)-N2-neopentyl-N4-(2-(trifluoromethyl)pyridin-4-yl)-1,3,5-triazine-2,4-diamine] |
| 100 to 1000 nM | 1000 to 10000 nM | < 100 nM | CC(C)(O)CNc1nc(Nc2ccnc(C(C)(C)C#N)c2)nc(-c2cccc(C(F)(F)F)n2)n1 [Compound 678, 2-{4-[4-(2-Hydroxy-2-methyl-propylamino)-6-(6-trifluoromethyl-pyridin-2-yl)-[1,3,5]triazin-2-ylamino]-pyridin-2-yl}-2-methyl-propionitrile] |
| < 100 nM | < 100 nM | < 100 nM | CC(C)Nc1nc(Nc2cccc(F)c2)nc(-c2c(F)cccc2F)n1 [Compound 473, 6-(2,6-Difluoro-phenyl)-N-(3-fluoro-phenyl)-N′-isopropyl-[1,3,5]triazine-2,4-diamine] |
| < 100 nM | 100 to 1000 nM | < 100 nM | CC(C)(C)Nc1nc(Nc2cc(F)cc(S(C)(=O)=O)c2)nc(-c2cccc(C(C)(F)F)n2)n1 [Compound 616, N2-(tert-butyl)-6-(6-(1,1-difluoroethyl)pyridin-2-yl)-N4-(3-fluoro-5-(methylsulfonyl)phenyl)-1,3,5-triazine-2,4-diamine] |
| 1000 to 10000 nM | 100 to 1000 nM | 100 to 1000 nM | CC(C)Nc1nc(Nc2cccc(S(C)(=O)=O)c2)nc(-c2nc(F)ccc2F)n1 [Compound 454] |
| < 100 nM | 100 to 1000 nM | < 100 nM | CC(C)Nc1nc(Nc2ccnc(C(C)(C)O)c2)nc(-c2cccc(Cl)n2)n1 [Compound 514, 2-{4-[4-(6-Chloro-pyridin-2-yl)-6-isopropylamino-[1,3,5]triazin-2-ylamino]-pyridin-2-yl}-propan-2-ol] |
| < 100 nM | < 100 nM | < 100 nM | CC(C)Nc1nc(Nc2cc(F)cc(F)c2)nc(-c2cccc(Cl)n2)n1 [Compound 340, 6-(6-chloropyridin-2-yl)-N^2-(3,5-difluorophenyl)-N^4-isopropyl-1,3,5-triazine-2,4-diamine] |
| < 100 nM | 100 to 1000 nM | < 100 nM | CC(C)Nc1nc(Nc2cc(F)cc(S(C)(=O)=O)c2)nc(-c2cccc(C(F)(F)F)n2)n1 [Compound 570, N2-(3-fluoro-5-(methylsulfonyl)phenyl)-N4-isopropyl-6-(6-(trifluoromethyl)pyridin-2-yl)-1,3,5-triazine-2,4-diamine] |
| 100 to 1000 nM | < 100 nM | < 100 nM | COCC(C)Nc1nc(Nc2ccccc2)nc(-c2ccccc2)n1 (stereo not drawn) [Compound 269, N^2-(1-methoxypropan-2-yl)-N^4,6-diphenyl-1,3,5-triazine-2,4-diamine] |
| 100 to 1000 nM | 100 to 1000 nM | 100 to 1000 nM | CC(C)(C)OC(=O)N1CCC(Nc2nc(Nc3ccccc3)nc(-c3ccccc3)n2)CC1 [Compound 667, 4-(4-Phenyl-6-phenylamino-[1,3,5]triazin-2-ylamino)-piperidine-1-carboxylic acid tert-butyl ester] |
